Six compounds from PubChem BioAssay (NCI) can be followed below.

Test systems include HL-60(TB) leukemia; HS 578T breast; CAKI-1 renal; COLO 205 colon; SK-MEL-28 melanoma; UACC-62 melanoma; NCI-H226 lung; EKVX NSCLC; SN12C renal; RPMI-8226 leukemia.
What all share (test): DTP human tumour cell line panel, 48 h

SMILES strings stand for the structures. “And” between values parts separate entries of the source, which are not always exact repeats. Identical values can stand only once.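 How tested: cells in 96-well plates exposed to compound for 48 hours at five concentrations. The concentration for 50% growth inhibition is given as GI50. TGI marks complete inhibition of growth.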

For the compound `O=C(CCN1CCCN(c2cnc3ccccc3n2)CC1)c1csc2ccccc12`, the GI50 – broadly, the concentration that inhibits growth by half – in the assay with HL-60(TB) leukemia is 27.2 µM; in the assay on HS 578T breast, 20 µM; in the assay with CAKI-1 renal, 17.8 µM; in the assay on COLO 205 colon, 17.6 µM; with SK-MEL-28 melanoma, 20.6 µM; with UACC-62 melanoma, 19.7 µM. The GI50 is 21.1 µM with NCI-H226 lung, 19.6 µM with EKVX NSCLC, 21.9 µM in the assay on SN12C renal and 12.6 µM with RPMI-8226 leukemia. The TGI (usually the concentration giving total growth inhibition) with HL-60(TB) leukemia was 59.7 µM; in the assay with HS 578T breast, 51.5 µM; in the assay with CAKI-1 renal, 31.7 µM; with COLO 205 colon, 33.4 µM; in the assay with SK-MEL-28 melanoma it was 37.1 µM; with UACC-62 melanoma it was 34.2 µM. The TGI in the assay with NCI-H226 lung amounted to 38.5 µM; in the assay with EKVX NSCLC, 38.7 µM; with SN12C renal it was 44.7 µM; in the assay with RPMI-8226 leukemia it was 41.8 µM.
`C=CC(=O)N1CCC[C@@H](n2nc(-c3ccc(Oc4ccccc4)cc3)c3c(N)ncnc32)C1`: the GI50 is above 5.51 µM in the assay with HL-60(TB) leukemia; above 10 µM in the assay with HS 578T breast; above 6.12 µM with CAKI-1 renal; above 10 µM with COLO 205 colon; above 10 µM with SK-MEL-28 melanoma; above 4.22 µM with UACC-62 melanoma. For the same compound, the GI50 was above 6.06 µM in the assay on NCI-H226 lung, 0.396 µM with EKVX NSCLC, above 4.69 µM in the assay with SN12C renal and above 7.41 µM with RPMI-8226 leukemia. Besides, the total growth inhibition concentration (TGI) with HL-60(TB) leukemia, with HS 578T breast, with CAKI-1 renal, in the assay on COLO 205 colon, in the assay on SK-MEL-28 melanoma and in the assay with UACC-62 melanoma was above 10 µM throughout. The TGI in the assay on NCI-H226 lung, with EKVX NSCLC, in the assay on SN12C renal and in the assay with RPMI-8226 leukemia was above 10 µM in each case.
As to `CCOc1ccc2c(c1)C(=O)c1c-2n(CCCN=[N+]=[N-])c(=O)c2cc([N+](=O)[O-])ccc12`, the GI50 in the assay with HL-60(TB) leukemia was 28.5 µM; in the assay with HS 578T breast, 45.9 µM; in the assay on CAKI-1 renal, 5.71 µM; in the assay on COLO 205 colon, 54.1 µM; in the assay on SK-MEL-28 melanoma it was 51.7 µM; in the assay on UACC-62 melanoma it was 2.89 µM. Also, the GI50 with NCI-H226 lung is 2.24 µM; in the assay on EKVX NSCLC, 32.5 µM; in the assay on SN12C renal it was 5.3 µM; with RPMI-8226 leukemia, 2.25 µM. Further, the TGI with HL-60(TB) leukemia was above 100 µM; in the assay on HS 578T breast it was above 100 µM; with CAKI-1 renal it was 89.2 µM; in the assay with COLO 205 colon, above 100 µM; with SK-MEL-28 melanoma, above 100 µM; in the assay with UACC-62 melanoma, 24.1 µM. Further, the TGI with NCI-H226 lung was 9.92 µM; in the assay on EKVX NSCLC, above 100 µM; in the assay with SN12C renal it was above 100 µM; with RPMI-8226 leukemia, 31 µM.
In the case of `CC[C@@H](C)/C=C(C)/C=C/C(=O)c1c(O)c(-c2ccc(O)cc2)cn(OC2CC(=O)CCC(C)OC(=O)CC2O)c1=O` (some centres undefined), the GI50 in the assay with HL-60(TB) leukemia is 0.212 µM; in the assay on HS 578T breast, 2.36 µM; in the assay on CAKI-1 renal it was 0.361 µM; in the assay with COLO 205 colon it was 5.97 µM; in the assay with SK-MEL-28 melanoma it was 0.552 µM; with UACC-62 melanoma it was 0.279 µM. In addition, the 50% growth inhibitory concentration (GI50) with NCI-H226 lung was 0.285 µM; with EKVX NSCLC, 1.39 µM; in the assay with SN12C renal it was 0.445 µM; in the assay with RPMI-8226 leukemia it was 0.463 µM. For the same compound, the concentration for total growth inhibition (TGI) in the assay on HL-60(TB) leukemia was 2.86 µM; in the assay with HS 578T breast, above 67.2 µM; with CAKI-1 renal, 3 µM; with COLO 205 colon, 21.2 µM; in the assay with SK-MEL-28 melanoma it was 19.5 µM; with UACC-62 melanoma, 1.15 µM. Further, the TGI in the assay on NCI-H226 lung came to 3.05 µM; in the assay with EKVX NSCLC it was 12.3 µM; in the assay on SN12C renal it was 13.8 µM; in the assay on RPMI-8226 leukemia it was 22.9 µM.
Turning to `NC1(C(=O)N[C@@H](CCO)c2ccc(Cl)cc2)CCN(c2ncnc3[nH]ccc23)CC1`, the GI50 is > 4.63 µM and 24.2 µM with HL-60(TB) leukemia; 0.177 µM and 0.421 µM in the assay with HS 578T breast; > 2.14 µM and 14.1 µM in the assay on CAKI-1 renal; 1.9 µM and 10.9 µM in the assay on COLO 205 colon; 1.69 µM and 7.47 µM in the assay with SK-MEL-28 melanoma; 0.608 µM and 1.85 µM in the assay with UACC-62 melanoma. Besides, the GI50 in the assay on NCI-H226 lung was 2.14 µM and 7.92 µM; with EKVX NSCLC, 7.46 µM; in the assay on SN12C renal, 13.9 µM; in the assay with RPMI-8226 leukemia it was > 2.61 µM and 27.3 µM. Further, the concentration for total growth inhibition (TGI) in the assay on HL-60(TB) leukemia is above 67.8 µM; in the assay with CAKI-1 renal, above 100 µM; in the assay on COLO 205 colon it was above 83.7 µM; in the assay on SK-MEL-28 melanoma, above 100 µM; in the assay with UACC-62 melanoma, 4 µM and 23.7 µM; in the assay on NCI-H226 lung it was above 83.4 µM. Moreover, the TGI is above 100 µM in the assay on EKVX NSCLC, above 100 µM in the assay with SN12C renal and above 81.8 µM with RPMI-8226 leukemia.
With `CCCCOC(=O)c1c(C)[nH]c(/C=C2\N=C(c3ccc[nH]3)C=C2OC)c1C`, the GI50 with HL-60(TB) leukemia is 0.581 µM; in the assay with HS 578T breast it was 0.147 µM; in the assay with CAKI-1 renal, 0.071 µM; in the assay on COLO 205 colon, 0.274 µM; in the assay with SK-MEL-28 melanoma it was 0.509 µM; in the assay with UACC-62 melanoma, 0.127 µM. Besides, the GI50 was 0.31 µM with NCI-H226 lung, 0.46 µM in the assay with EKVX NSCLC, 0.226 µM in the assay on SN12C renal and 0.175 µM in the assay with RPMI-8226 leukemia. Moreover, the TGI was determined as 4 µM in the assay with HL-60(TB) leukemia; 1.19 µM with HS 578T breast; 3.85 µM in the assay with CAKI-1 renal; 1.67 µM in the assay with COLO 205 colon; 2.8 µM in the assay with SK-MEL-28 melanoma; 0.339 µM in the assay on UACC-62 melanoma. Further, the TGI in the assay on NCI-H226 lung came out at 1.72 µM; in the assay on EKVX NSCLC it was 4.88 µM; with SN12C renal, 2.54 µM; in the assay with RPMI-8226 leukemia, 2.04 µM.
